Values of other authors as cited in patent US20170239214A1, “COMPOSITION FOR PREVENTING OR TREATING OBESITY CONTAINING ALPHA-LIPOIC ACID AND N-ACETYLCYSTEINE AS ACTIVE INGREDIENTS” (The Asan Foundation, priority 2015, published 2017).

Legend:
[1] = rats
[2] = mice

SMILES	improving insulin resistance [1]	inhibiting a weight gain [1]	appetite suppressant effect [2]
CC(=O)N[C@@H](CS)C(=O)O [N-acetylcysteine]	improving insulin resistance	significant effects of inhibiting a weight gain	–
O=C(O)CCCCC1CCSS1 (stereo not drawn) [α-lipoic acid]	–	–	pronounced appetite suppressant effect
